Experiments:
[1] = tested on: OVCAR-3 human ovarian adenocarcinoma tumor mass; assay: Pharmacodynamic testing in subcutaneous OVCAR-3 xenograft model; format: in vivo, BALB/c nude mice; details: for inhibitory effect on tumor growth (in words): 8 mg/kg, compared with the solvent control group and AMG650; for TGI% / Relative tumor volume (x±S) / Tumor volume (x±S): 35 days after administration, 8 mg/kg po QD, BALB/c nude mice; for Relative tumor volume (x±S) / Tumor volume (x±S): mean value ± standard error; for Tumor volume (x±S): in mm³ (unit assumed)
Procedure: Anti-tumor effects and Safeties of the Compounds 47 and 53 of the present invention in a BALB/c nude mouse animal model subjected to subcutaneous xenotransplantation of OVCAR-3 human ovarian adenocarcinoma tumor mass were evaluated.
BALB/c; nude mice, female, 6-7 weeks old, purchased from Jiangsu Gempharmatech Biotechnology Co., Ltd.
Mice in a solvent control group were given DMA: CrEL: 5%GS=10: 10: 80 (v: v: v). AMG650: a proper amount of AMG-650 was weigned, proper amounts of DMA, CrEL and 5% GS were added in sequence, and the mixture was well mixed by ultrasonic vortex to prepare 0.8 mg/mL drug preparations respectively, wherein DMA: CrEL : 5% GS=10: 10: 80 (v: v: v).
Compound 47: a proper amount of Compound 47 was added with proper amounts of DMA, CrEL and 5% GS in sequence, and evenly mixed by ultrasonic vortex to prepare 0.8 mg/mL drug preparations respectively, wherein DMA, CrEL and 5% GS=10: 10: 80 (v: v: v).
Compound 53: a proper amount of Compound 53 was weighed, proper amounts of DMA, CrEL and 5% GS were added in sequence, and the mixture was well mixed by ultrasonic vortex to prepare 0.8 mg/mL drug preparations respectively, wherein DMA: CrEL : 5% GS=10: 10: 80 (v: v: v).
An appropriate OVCAR-3 tumor-bearing animal was selected, and a 1 mm×1 mm×1 mm OVCAR-3 tumor mass was acquired aseptically and placed into normal saline for later use, which was used for subcutaneous tumor inoculation in a right side of back of the BALB/c nude mice.
About 1 mm×1 mm×1 mm OVCAR-3 tumor mass was subcutaneously inoculated in the right side of back of the female BALB/c nude mice. When an average tumor volume reached about 100-250 mm^3, the mice were randomly grouped based on tumor size, with 6 mice in each group.
Animals in each group were given the test compound once per day according to an animal weight at a fixed time every day by oral administration (po), the animals started to be administered with the test compound for the first time on the day of grouping for 35 consecutive days, and the animal weight was recorded every day.
The 1st group (G1) was a solvent control group; and
The 2nd-4th groups […] were orally administered with AMG-650, Compound 47 and Compound 53 at an administration dosage of 8 mg/kg once per day (QD).

recombinant human KIF18A = target: T1, recombinant human KIF18A (Homo sapiens, UniProt Q8NI77); assay: Inhibition of KIF18A enzyme activity (ADP-Glo assay); format: biochemical; details: recombinant human KIF18A 100 nM, ATP 60 µM, tubulin, paclitaxel; read-out: IC50
T1 construct: purchased GenScript
T1 sequence (Q8NI77 whole entry): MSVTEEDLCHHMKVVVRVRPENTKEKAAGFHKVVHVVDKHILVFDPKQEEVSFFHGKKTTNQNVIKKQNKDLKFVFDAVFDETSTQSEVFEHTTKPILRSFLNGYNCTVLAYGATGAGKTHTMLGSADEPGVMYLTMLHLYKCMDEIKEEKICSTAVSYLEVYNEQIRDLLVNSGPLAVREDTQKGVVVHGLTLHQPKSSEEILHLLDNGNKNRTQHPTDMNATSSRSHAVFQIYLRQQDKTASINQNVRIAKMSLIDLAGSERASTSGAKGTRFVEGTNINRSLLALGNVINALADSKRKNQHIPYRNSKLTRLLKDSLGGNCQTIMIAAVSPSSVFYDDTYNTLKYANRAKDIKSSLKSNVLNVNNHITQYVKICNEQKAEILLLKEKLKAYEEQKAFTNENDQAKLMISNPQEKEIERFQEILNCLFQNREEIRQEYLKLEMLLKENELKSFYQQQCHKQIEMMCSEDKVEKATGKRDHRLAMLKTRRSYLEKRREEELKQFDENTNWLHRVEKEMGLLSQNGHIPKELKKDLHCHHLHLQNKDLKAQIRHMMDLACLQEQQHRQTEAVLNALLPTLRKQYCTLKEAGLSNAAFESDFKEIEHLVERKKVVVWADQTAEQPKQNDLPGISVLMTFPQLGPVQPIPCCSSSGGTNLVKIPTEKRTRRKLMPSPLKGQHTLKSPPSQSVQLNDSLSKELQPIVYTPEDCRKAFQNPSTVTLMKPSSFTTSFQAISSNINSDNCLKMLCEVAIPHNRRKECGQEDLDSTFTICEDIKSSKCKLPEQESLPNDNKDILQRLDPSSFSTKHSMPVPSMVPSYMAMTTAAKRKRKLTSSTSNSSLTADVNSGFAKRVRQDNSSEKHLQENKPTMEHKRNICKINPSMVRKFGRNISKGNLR
T1 sequence (P68363 whole entry partner): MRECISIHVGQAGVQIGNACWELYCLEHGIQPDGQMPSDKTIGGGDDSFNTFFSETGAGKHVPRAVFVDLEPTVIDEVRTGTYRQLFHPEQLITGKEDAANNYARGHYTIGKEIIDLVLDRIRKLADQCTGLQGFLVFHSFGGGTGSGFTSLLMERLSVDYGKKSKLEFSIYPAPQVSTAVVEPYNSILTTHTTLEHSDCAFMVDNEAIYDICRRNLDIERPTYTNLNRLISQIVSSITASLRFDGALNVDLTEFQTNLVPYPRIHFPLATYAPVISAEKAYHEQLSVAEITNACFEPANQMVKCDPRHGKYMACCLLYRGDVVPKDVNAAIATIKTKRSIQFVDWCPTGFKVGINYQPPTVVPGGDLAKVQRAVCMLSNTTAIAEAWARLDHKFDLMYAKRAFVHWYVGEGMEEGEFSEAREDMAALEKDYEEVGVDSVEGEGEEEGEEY
T1 sequence (Q9BVA1 whole entry partner): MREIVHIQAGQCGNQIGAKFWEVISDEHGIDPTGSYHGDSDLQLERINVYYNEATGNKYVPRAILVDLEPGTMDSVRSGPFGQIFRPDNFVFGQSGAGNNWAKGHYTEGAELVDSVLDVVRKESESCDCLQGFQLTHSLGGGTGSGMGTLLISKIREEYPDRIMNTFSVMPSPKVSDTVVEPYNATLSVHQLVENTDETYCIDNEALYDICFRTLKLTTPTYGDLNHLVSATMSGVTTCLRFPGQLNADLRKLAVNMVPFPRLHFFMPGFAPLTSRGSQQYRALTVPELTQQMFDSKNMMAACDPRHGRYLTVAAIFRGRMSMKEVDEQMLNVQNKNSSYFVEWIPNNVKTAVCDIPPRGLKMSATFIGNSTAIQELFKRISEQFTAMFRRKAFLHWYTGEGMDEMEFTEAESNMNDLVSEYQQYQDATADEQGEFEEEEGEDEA

| Compound | inhibitory effect on tumor growth (in words) [1] | TGI% [1] | Relative tumor volume (x±S) [1] | Tumor volume (x±S) [1] | IC50 (recombinant human KIF18A) |
| --- | --- | --- | --- | --- | --- |
| CCS(=O)(=O)Nc1ccc(C(=O)Nc2ccc(-c3ncn(C)n3)c(OCC(F)(F)F)c2)c(N2CCC3(CC2)CC3)c1 [Example 47, 4-(ethylsulfonamido)-N-(4-(1-methyl-1H-1,2,4-triazol-3-yl)-3-(2,2,2-trifluoroethoxy)pheny 1)-2-(6-azaspiro[2.5]octan-6-yl)benzamide] | more significant inhibitory effect on tumor growth | 95.5% | 0.22±0.11 | 40±20 | 0.155 µM |
| CCS(=O)(=O)Nc1ccc(C(=O)Nc2ccc(-c3ncccn3)c(OCC(F)(F)F)c2)c(N2CCC3(CC2)CC3)c1 [Example 53, 4-(ethylsulfonamido)-N-(4-(pyrimidin-2-yl)-3-(2,2,2-trifluoroethoxy)phenyl)-2-(6-azaspiro[2.5]octan-6-yl)benzamide] | more significant inhibitory effect on tumor growth | 98.0% | 0.10±0.04 | 21±9 | 0.142 µM |

— patent publication EP4748837A1, “AROMATIC AMIDE DERIVATIVE, AND PREPARATION METHOD THEREFOR AND USE THEREOF” (Zhejiang Hisun Pharmaceutical Co., Ltd., priority 2023, dated 2025)
